US9604980B2, “Substituted pyrimidinyl and pyridinyl-pyrrolopyridinones, process for their preparation and their use as kinase inhibitors” (NERVIANO MEDICAL SCIENCES S.r.l, priority 2012, dated 2017)
≈ marks a conversion by molar mass, not a printed value.

Assays:
[1] = High-Throughput Solubility Assay; type: physicochemical; conditions: kinetic from dmso stock; pH 7, aqueous potassium phosphate buffer, nominal 200 μM, 24 h at room temperature
Procedure: High-Throughput Solubility Assay
A nominal 200 μM suspensions/solutions of a compound of formula (I) in aqueous potassium phosphate buffer at pH=7 and aqueous citric acid buffer at pH=3 were prepared on a “Multiscreen-HTS”, 0.2 μm filter plate (Millipore, Billerica, Mass.). These solutions were stirred for 10 min and stored for 24 h at room temperature to pre-saturate the membrane filter and to reach a “pseudo-thermodynamic solubility”. Then the plate was put on a 500 μL 96 multiwell plate containing 200 μL of acetonitrile in each well and centrifuged at 2000 rpm for 5 minutes. The so obtained solutions were then analyzed simultaneously by HPLC-UV with standard solutions for quantification.

[2] = tested on: A2780 ovarian carcinoma cells; assay: In Vitro Cell Proliferation Assay (A2780); type: cell-based; conditions: Homo sapiens, 72 hours exposure, CellTiterGlo
Procedure: (§1) In Vitro Cell Proliferation Assay
(§2) To evaluate the antiproliferative activity of a compound of formula (I) the following human cell lines were used: A2780 ovarian and MCF-7 breast carcinoma; TT and MZ-CRC-1 medullary thyroid carcinoma, harboring a mutated RET-C634W and RET-M918T receptor respectively, LC-2/ad Non Small Cell Lung Carcinoma, expressing the CCDC6-RET fusion gene product. Exponentially growing cells were seeded and incubated at 37° C. in a humidified 5% C02 atmosphere using appropriate medium supplemented with 10% Fetal Bovine Serum. 24 hours following cell plating, scalar doses of the compounds dissolved in 0.1% DMSO were added to the medium and cells were exposed to drugs for either 72 hours (MCF-7 and A2780) or 144 hours (TT, MZ-CRC-1 and LC-2/ad), according to their different proliferation rate. At the end of treatment, cell proliferation was determined by an intracellular ATP monitoring system (CellTiterGlo—Promega), following manufacturer's instructions, and using an Envision instrument (PerkinElmer) as reader. Data obtained from compound versus vehicle treated cells were compared using Assay Explorer (Symyx Technologies Inc) software. IC50 values were calculated using sigmoidal interpolation curve fitting.

[3] = tested on: MCF-7 breast carcinoma cells; assay: In Vitro Cell Proliferation Assay (MCF-7); type: cell-based; conditions: Homo sapiens, MCF7; 72 hours exposure, CellTiterGlo
Procedure: as §1, §2

[4] = tested on: TT medullary thyroid carcinoma cells, harboring a mutated RET-C634W receptor; assay: In Vitro Cell Proliferation Assay (TT); type: cell-based; conditions: Homo sapiens; 144 hours exposure, CellTiterGlo
Procedure: as §1, §2

[5] = tested on: MZ-CRC-1 medullary thyroid carcinoma cells, harboring a mutated RET-M918T receptor; assay: In Vitro Cell Proliferation Assay (MZ-CRC-1); type: cell-based; conditions: Homo sapiens, 144 hours exposure, CellTiterGlo
Procedure: as §1, §2

[6] = tested on: LC-2/ad Non Small Cell Lung Carcinoma cells, expressing the CCDC6-RET fusion gene product; assay: In Vitro Cell Proliferation Assay (LC-2/ad); type: cell-based; conditions: Homo sapiens, 144 hours exposure, CellTiterGlo
Procedure: as §1, §2

Row | Compound | solubility at 24 h [1] [µM] | IC50 [2] [nM] | IC50 [3] [nM] | IC50 [4] [µM] | IC50 [5] [µM] | IC50 [6] [µM]
1 | CCN1CCN(Cc2ccc(NC(=O)c3cccc(C#Cc4cnc(N)nc4-c4cc5c(n4C)CCNC5=O)c3)cc2C(F)(F)F)CC1 [Cmpd 48, 3-[2-Amino-4-(1-methyl-4-oxo-4,5,6,7-tetrahydro-1H-pyrrolo[3,2-c]pyridin-2-yl)-pyrimidin-5-ylethynyl]-N-[4-(4-ethyl-piperazin-1-ylmethyl)-3-trifluoromethyl-phenyl]-benzamide] | 26.9 (≈ 17.7 µg/mL) | 85 | 1840 | 0.0005 | 0.004 | 0.004
2 | CCN1CCN(Cc2ccc(NC(=O)Nc3cccc(C#Cc4cnc(N)nc4-c4cc5c(n4C)CCNC5=O)c3)cc2C(F)(F)F)CC1 [Cmpd 8, 1-{3-[2-Amino-4-(1-methyl-4-oxo-4,5,6,7-tetrahydro-1H-pyrrolo[3,2-c]pyridin-2-yl)-pyrimidin-5-ylethynyl]-phenyl}-3-[4-(4-ethyl-piperazin-1-ylmethyl)-3-trifluoromethyl-phenyl]-urea] | 6.5 (≈ 4.37 µg/mL) | 1760 | 4780 | 0.002 | 0.074 | 0.038
3 | CCN1CCN(Cc2ccc(NC(=O)Cc3cccc(C#Cc4cnc(NC)nc4-c4cc5c(n4C)CCNC5=O)c3)cc2C(F)(F)F)CC1 [Cmpd 78, N-[4-(4-Ethyl-piperazin-1-ylmethyl)-3-trifluoromethyl-phenyl]-2-{3-[2-methylamino-4-(1-methyl-4-oxo-4,5,6,7-tetrahydro-1H-pyrrolo[3,2-c]pyridin-2-yl)-pyrimidin-5-ylethynyl]-phenyl}-acetamide] | 1.4 (≈ 0.959 µg/mL) | 2220 | 2310 | 0.007 | 0.026 | 0.014
4 | CCN1CCN(Cc2ccc(NC(=O)Cc3cccc(C#Cc4cnc(N)nc4-c4cc5c(n4C)CCNC5=O)c3)cc2C(F)(F)F)CC1 [Cmpd 77, 2-{3-[2-Amino-4-(1-methyl-4-oxo-4,5,6,7-tetrahydro-1H-pyrrolo[3,2-c]pyridin-2-yl)-pyrimidin-5-ylethynyl]-phenyl}-N-[4-(4-ethyl-piperazin-1-ylmethyl)-3-trifluoromethyl-phenyl]-acetamide] | 23 (≈ 15.4 µg/mL) | 2820 | 6650 | 0.002 | 0.023 | 0.003
5 | CNc1ncc(C#Cc2cccc(CC(=O)Nc3ccc(CN4CCN(C(C)C)CC4)c(C(F)(F)F)c3)c2)c(-c2cc3c(n2C)CCNC3=O)n1 [Cmpd 176, N-[4-(4-Isopropyl-piperazin-1-ylmethyl)-3-trifluoromethyl-phenyl]-2-{3-[2-methylamino-4-(1-methyl-4-oxo-4,5,6,7-tetrahydro-1H-pyrrolo[3,2-c]pyridin-2-yl)-pyrimidin-5-ylethynyl]-phenyl}-acetamide] | 7.6 (≈ 5.31 µg/mL) | 3830 |  | 0.014 | 0.023 | 0.02
6 | CCNc1ncc(C#Cc2cccc(CC(=O)Nc3ccc(CN4CCN(C)CC4)c(C(F)(F)F)c3)c2)c(-c2cc3c(n2C)CCNC3=O)n1 [Cmpd 193, 2-{3-[2-Ethylamino-4-(1-methyl-4-oxo-4,5,6,7-tetrahydro-1H-pyrrolo[3,2-c]pyridin-2-yl)-pyrimidin-5-ylethynyl]-phenyl}-N-[4-(4-methyl-piperazin-1-ylmethyl)-3-trifluoromethyl-phenyl]-acetamide] | < 1 | 910 |  | 0.016 | 0.039 | 0.015
7 | CNc1ncc(C#Cc2cc(CC(=O)Nc3ccc(CN4CCN(C)CC4)c(C(F)(F)F)c3)ccc2F)c(-c2cc3c(n2C)CCNC3=O)n1 [Cmpd 190, 2-{4-Fluoro-3-[2-methylamino-4-(1-methyl-4-oxo-4,5,6,7-tetrahydro-1H-pyrrolo[3,2-c]pyridin-2-yl)-pyrimidin-5-ylethynyl]-phenyl}-N-[4-(4-methyl-piperazin-1-ylmethyl)-3-trifluoromethyl-phenyl]-acetamide] | 2.9 (≈ 2 µg/mL) | 2310 |  | 0.008 | 0.039 | 0.051
